Experimental data: ChEMBL document CHEMBL4419178, “Yap1 inhibitors that target the interaction of yap1 with oct4” (2018)
Each block holds one molecule with its values, some of them ahead of it. The source made the active and inactive calls. No cut-off for these calls is given here.

Legend:
[1] = target: Transcriptional coactivator YAP1 (Homo sapiens) (UniProt P46937); test: Inhibition of YAP1 in human NCI-H1650 cells assessed as reduction in Sox2 protein expression at 10 uM incubated for 72 hrs by Western blot analysis; type: cell-based
Transcriptional coactivator YAP1 (Homo sapiens), sequence (P46937 whole entry): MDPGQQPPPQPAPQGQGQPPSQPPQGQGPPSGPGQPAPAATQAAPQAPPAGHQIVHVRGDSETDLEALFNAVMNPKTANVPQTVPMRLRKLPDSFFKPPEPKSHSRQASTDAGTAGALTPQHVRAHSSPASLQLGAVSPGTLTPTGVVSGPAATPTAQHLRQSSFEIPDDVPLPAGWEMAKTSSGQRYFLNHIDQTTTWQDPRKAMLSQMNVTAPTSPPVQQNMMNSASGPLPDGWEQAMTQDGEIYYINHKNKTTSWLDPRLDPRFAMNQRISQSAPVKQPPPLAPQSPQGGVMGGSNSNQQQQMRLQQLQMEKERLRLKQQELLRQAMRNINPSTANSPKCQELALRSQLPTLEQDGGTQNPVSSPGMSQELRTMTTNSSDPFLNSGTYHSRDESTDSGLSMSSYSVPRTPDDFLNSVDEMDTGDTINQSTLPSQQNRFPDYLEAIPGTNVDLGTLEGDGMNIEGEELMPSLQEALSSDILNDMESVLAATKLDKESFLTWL

[2] = target: Transcriptional coactivator YAP1 (Homo sapiens) (UniProt P46937); test: Inhibition of YAP1 in human NCI-H1650 cells assessed as reduction in c-Myc protein expression at 10 uM incubated for 72 hrs by Western blot analysis; type: cell-based
[3] = target: Transcriptional coactivator YAP1 (Homo sapiens) (UniProt P46937); test: Inhibition of YAP1 in human NCI-H1650 cells assessed as reduction in PDK2 protein expression at 10 uM incubated for 72 hrs by Western blot analysis; type: cell-based
[4] = target: Transcriptional coactivator YAP1 (Homo sapiens) (UniProt P46937); test: Inhibition of YAP1 in human A549 cells assessed as reduction in Sox2 protein expression at 10 uM incubated for 72 hrs by Western blot analysis; type: cell-based
[5] = target: Transcriptional coactivator YAP1 (Homo sapiens) (UniProt P46937); test: Inhibition of YAP1 in human A549 cells assessed as reduction in c-Myc protein expression at 10 uM incubated for 72 hrs by Western blot analysis; type: cell-based
[6] = target: Transcriptional coactivator YAP1 (Homo sapiens) (UniProt P46937); test: Inhibition of YAP1 in human A549 cells assessed as reduction in PDK2 protein expression at 10 uM incubated for 72 hrs by Western blot analysis; type: cell-based
NCI-H1650 [7] = test: Inhibition of adherence-independent cell growth in human NCI-H1650 cells at 5 uM incubated for 33 days; type: functional, cell-based
NCI-H1650 [8] = test: Inhibition of adherence-independent cell growth in human NCI-H1650 cells at 10 uM incubated for 33 days; type: functional, cell-based
NCI-H146 [9] = test: Inhibition of self-renewal capacity in methotrexate insensitive stem-like side-population cells of human NCI-H146 cells assessed as reduction in number of spheres at 2 uM incubated for 3 days after 7 days methotrexate exposure by sphere formation assay; type: functional
NCI-H1975 = test: Cytotoxicity in gefitinib and erlotinib resistant human NCI-H1975 cells assessed as reduction in cell viability at 1 to 10 uM incubated for 72 hrs by MTT assay; type: functional, cell-based
[10] = target: Transcriptional coactivator YAP1 (Homo sapiens) (UniProt P46937); test: Inhibition of YAP1 in human NCI-H1650 cells assessed as suppression of Sox2 mRNA expression at 5 to 10 uM incubated for 72 hrs by RT-PCR method; type: cell-based
[11] = target: Transcriptional coactivator YAP1 (Homo sapiens) (UniProt P46937); test: Inhibition of YAP1 in human NCI-H1703 cells assessed as suppression of Sox2 mRNA expression at 5 to 10 uM incubated for 72 hrs by RT-PCR method; type: cell-based
[12] = target: Transcriptional coactivator YAP1 (Homo sapiens) (UniProt P46937); test: Inhibition of YAP1 in human NCI-H146 cells assessed as suppression of Sox2 mRNA expression at 5 to 10 uM incubated for 72 hrs by RT-PCR method; type: cell-based
NCI-H1650 [13] = test: Effect on expression of Oct4 mRNA expression in human NCI-H1650 cells at 5 to 10 uM incubated for 72 hrs by RT-PCR method; type: cell-based; details: nci-h1650, 72 h
NCI-H1650 [14] = test: Effect on expression of Nanog mRNA expression in human NCI-H1650 cells at 5 to 10 uM incubated for 72 hrs by RT-PCR method; type: cell-based; details: nci-h1650, 72 h
NCI-H1703 [15] = test: Effect on expression of Oct4 mRNA expression in human NCI-H1703 cells at 5 to 10 uM incubated for 72 hrs by RT-PCR method; type: cell-based; details: nci-h1703, 72 h
NCI-H1703 [16] = test: Effect on expression of Nanog mRNA expression in human NCI-H1703 cells at 5 to 10 uM incubated for 72 hrs by RT-PCR method; type: cell-based; details: nci-h1703, 72 h
NCI-H146 [17] = test: Effect on expression of Oct4 mRNA expression in human NCI-H146 cells at 5 to 10 uM incubated for 72 hrs by RT-PCR method; type: cell-based; details: nci-h146, 72 h
NCI-H146 [18] = test: Effect on expression of Nanog mRNA expression in human NCI-H146 cells at 5 to 10 uM incubated for 72 hrs by RT-PCR method; type: cell-based; details: nci-h146, 72 h
[19] = target: Transcriptional coactivator YAP1 (Homo sapiens) (UniProt P46937); test: Inhibition of YAP1 in human NCI-H1650 cells assessed as suppression of HK2 mRNA expression at 5 to 10 uM incubated for 72 hrs by RT-PCR method; type: cell-based
[20] = target: Transcriptional coactivator YAP1 (Homo sapiens) (UniProt P46937); test: Inhibition of YAP1 in human NCI-H1650 cells assessed as suppression of PDK2 mRNA expression at 5 to 10 uM incubated for 72 hrs by RT-PCR method; type: cell-based
[21] = target: Transcriptional coactivator YAP1 (Homo sapiens) (UniProt P46937); test: Inhibition of YAP1 in human NCI-H1703 cells assessed as suppression of HK2 mRNA expression at 5 to 10 uM incubated for 72 hrs by RT-PCR method; type: cell-based
[22] = target: Transcriptional coactivator YAP1 (Homo sapiens) (UniProt P46937); test: Inhibition of YAP1 in human NCI-H1703 cells assessed as suppression of PDK2 mRNA expression at 5 to 10 uM incubated for 72 hrs by RT-PCR method; type: cell-based
[23] = target: Transcriptional coactivator YAP1 (Homo sapiens) (UniProt P46937); test: Inhibition of YAP1 in human NCI-H146 cells assessed as suppression of HK2 mRNA expression at 5 to 10 uM incubated for 72 hrs by RT-PCR method; type: cell-based
[24] = target: Transcriptional coactivator YAP1 (Homo sapiens) (UniProt P46937); test: Inhibition of YAP1 in human NCI-H146 cells assessed as suppression of PDK2 mRNA expression at 5 to 10 uM incubated for 72 hrs by RT-PCR method; type: cell-based
[25] = target: Transcriptional coactivator YAP1 (Homo sapiens) (UniProt P46937); test: Inhibition of YAP1 in human NCI-H1650 cells assessed as suppression of PD-L1 mRNA expression at 5 to 10 uM incubated for 72 hrs by RT-PCR method; type: cell-based
[26] = target: Transcriptional coactivator YAP1 (Homo sapiens) (UniProt P46937); test: Inhibition of YAP1 in human NCI-H1703 cells assessed as suppression of PD-L1 mRNA expression at 5 to 10 uM incubated for 72 hrs by RT-PCR method; type: cell-based
NCI-H1650 [27] = test: Inhibition of YAP1/TEAD2 interaction in human NCI-H1650 cells assessed as suppression of CTGF mRNA expression at 5 to 10 uM incubated for 72 hrs by RT-PCR method; type: cell-based
NCI-H1703 [28] = test: Inhibition of YAP1/TEAD2 interaction in human NCI-H1703 cells assessed as suppression of CTGF mRNA expression at 5 to 10 uM incubated for 72 hrs by RT-PCR method; type: cell-based
[29] = target: Transcriptional coactivator YAP1 (Homo sapiens) (UniProt P46937); test: Inhibition of YAP1 in human NCI-H1650 cells assessed as suppression of fibronectin mRNA expression at 5 to 10 uM incubated for 72 hrs by RT-PCR method; type: cell-based
[30] = target: Transcriptional coactivator YAP1 (Homo sapiens) (UniProt P46937); test: Inhibition of YAP1 in human NCI-H1650 cells assessed as suppression of vimentin mRNA expression at 5 to 10 uM incubated for 72 hrs by RT-PCR method; type: cell-based
[31] = target: Transcriptional coactivator YAP1 (Homo sapiens) (UniProt P46937); test: Inhibition of YAP1 in human NCI-H1703 cells assessed as suppression of fibronectin mRNA expression at 5 to 10 uM incubated for 72 hrs by RT-PCR method; type: cell-based
[32] = target: Transcriptional coactivator YAP1 (Homo sapiens) (UniProt P46937); test: Inhibition of YAP1 in human NCI-H1703 cells assessed as suppression of vimentin mRNA expression at 5 to 10 uM incubated for 72 hrs by RT-PCR method; type: cell-based
NCI-H1703 [33] = test: Inhibition of adherence-independent cell growth in human NCI-H1703 cells at 10 uM incubated for 33 days; type: functional, cell-based
NCI-H1703 [34] = test: Inhibition of adherence-independent cell growth in human NCI-H1703 cells at 5 uM incubated for 33 days; type: functional, cell-based
NCI-H1650 [35] = test: Inhibition of self-renewal capacity in stem-like side-population cells of human NCI-H1650 cells assessed as reduction in number of spheres at 5 to 50 uM incubated for 10 days by sphere formation assay; type: functional, cell-based
NCI-H1650 [36] = test: Cytotoxicity in human NCI-H1650 cells assessed as reduction in cell viability at 1 to 20 uM incubated for 72 hrs by MTT assay; type: functional, cell-based
A549 = test: Cytotoxicity in human A549 cells assessed as reduction in cell viability at 1 to 20 uM incubated for 72 hrs by MTT assay; type: functional, cell-based
NCI-H2286 = test: Cytotoxicity in human NCI-H2286 cells assessed as reduction in cell viability at 5 to 50 uM incubated for 96 hrs by MTT assay; type: functional, cell-based
NCI-H2170 = test: Cytotoxicity in human NCI-H2170 cells assessed as reduction in cell viability at 5 to 50 uM incubated for 96 hrs by MTT assay; type: functional, cell-based
[37] = target: Transcriptional coactivator YAP1 (Homo sapiens) (UniProt P46937); test: Inhibition of YAP1 (unknown origin) assessed as disruption in YAP1/OCT4 interaction at 5 uM by ELISA relative to control
[38] = target: Transcriptional coactivator YAP1 (Homo sapiens) (UniProt P46937); test: Inhibition of YAP1 (unknown origin) assessed as disruption in YAP1/OCT4 interaction at 10 uM by ELISA relative to control
[39] = target: Transcriptional coactivator YAP1 (Homo sapiens) (UniProt P46937); test: Inhibition of YAP1 (unknown origin) assessed as disruption in YAP1/OCT4 interaction at 50 uM by cell based assay
[40] = Lipophilicity, logP of the compound; type: physicochemical; details: octanol/water
NCI-H1650 [41] = test: Inhibition of self-renewal capacity in stem-like side-population cells of human NCI-H1650 cells assessed as reduction in number of spheres at 1 to 20 uM incubated for 10 days by sphere formation assay; type: functional, cell-based

inhibition [1]: Active | inhibition [2]: Active | inhibition [3]: Active | inhibition [4]: Active | inhibition [5]: Active | inhibition [6]: Active | inhibition [10]: Active | inhibition [11]: Active | inhibition [12]: Active | inhibition [19]: Active | inhibition [20]: Active | inhibition [21]: Active | inhibition [22]: Active | inhibition [23]: Active | inhibition [24]: Active | inhibition [25]: Active | inhibition [26]: Active | inhibition [29]: Active | inhibition [30]: Active | inhibition [31]: Active | inhibition [32]: Active
Structure (SMILES): COC(=O)[C@H](Cc1ccc(OCc2ccccc2)cc1)NC(=O)CC1CCN(C(=O)CCCc2ccccc2)CC1
inhibition (NCI-H1650 [7]): Active | inhibition (NCI-H1650 [8]): Active | inhibition (NCI-H146 [9]): Active | Activity (NCI-H1975): Active | Activity (NCI-H1650 [13]): Non-Toxic | Activity (NCI-H1650 [14]): Non-Toxic | Activity (NCI-H1703 [15]): Non-Toxic | Activity (NCI-H1703 [16]): Non-Toxic | Activity (NCI-H146 [17]): Non-Toxic | Activity (NCI-H146 [18]): Non-Toxic | inhibition (NCI-H1650 [27]): inactive | inhibition (NCI-H1703 [28]): inactive | inhibition (NCI-H1703 [33]): Active | inhibition (NCI-H1703 [34]): Active

Structure (SMILES): COC(=O)[C@H](Cc1ccc(OCc2ccccc2)cc1)NC(=O)CC1CCN(C(=O)CCc2cc(OC)c(OC)c(OC)c2)CC1
inhibition (NCI-H1650 [35]): Active | Activity (NCI-H1650 [36]): Active | Activity (A549): Active | Activity (NCI-H2286): Active | Activity (NCI-H2170): Active

inhibition [37]: 72.6% | inhibition [38]: 80.8% | inhibition [39]: > 75% | logP [40]: 3.9 to 3.94
Structure (SMILES): COC(=O)[C@H](Cc1ccc(OCc2ccccc2)cc1)NC(=O)CC1CCN(C(=O)OC(C)(C)C)CC1
inhibition (NCI-H1650 [41]): Active

inhibition [1]: Active | inhibition [2]: Active | inhibition [3]: Active | inhibition [4]: Active | inhibition [5]: Active | inhibition [6]: Active
Structure (SMILES): COC(=O)[C@H](Cc1ccc(OCc2ccccc2)cc1)NC(=O)CC1CCN(C(=O)c2ccc(NC(=O)OC(C)(C)C)cc2)CC1
inhibition (NCI-H1650 [7]): Active | inhibition (NCI-H1650 [8]): Active | inhibition (NCI-H1703 [33]): Active | inhibition (NCI-H1703 [34]): Active
